For assay [1], the target named is T1, CFTR in F508del/F508del primary CF hBE cells (Homo sapiens, UniProt P13569, DEL508-508).
T1 construct: Primary cystic fibrosis human bronchial epithelial (CF hBE) cells were expanded and cultured; endogenous in cells; host or cells: primary CF human bronchial epithelial cells, genotype F508del/F508del
Briefly: Ussing chamber electrophysiology assay of CFTR potentiation in F508del/F508del CF bronchial epithelial cells (27° C.). In kind it is cell-based. In short, it runs like this:
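Well-differentiated primary CF hBE cells (>30 days air/liquid interface) in Ussing chambers, HEPES saline both sides, voltage clamped to zero. Amiloride 30 uM, forskolin 10 uM, four rising compound concentrations, then CFTRinh-172 20 uM added at 20-25 min intervals. Short-circuit current scaled to DMSO (0%) and a positive control potentiator maximum (100%).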

The target of assay [2] is T2, CFTR in G551D/F508del primary CF hBE cells (Homo sapiens, UniProt P13569, G551D).
T2 construct: Primary cystic fibrosis human bronchial epithelial (CF hBE) cells were expanded and cultured; endogenous in cells; host or cells: primary CF human bronchial epithelial cells, genotype G551D/F508del
T2 sequence (P13569 whole entry F508del/G551D): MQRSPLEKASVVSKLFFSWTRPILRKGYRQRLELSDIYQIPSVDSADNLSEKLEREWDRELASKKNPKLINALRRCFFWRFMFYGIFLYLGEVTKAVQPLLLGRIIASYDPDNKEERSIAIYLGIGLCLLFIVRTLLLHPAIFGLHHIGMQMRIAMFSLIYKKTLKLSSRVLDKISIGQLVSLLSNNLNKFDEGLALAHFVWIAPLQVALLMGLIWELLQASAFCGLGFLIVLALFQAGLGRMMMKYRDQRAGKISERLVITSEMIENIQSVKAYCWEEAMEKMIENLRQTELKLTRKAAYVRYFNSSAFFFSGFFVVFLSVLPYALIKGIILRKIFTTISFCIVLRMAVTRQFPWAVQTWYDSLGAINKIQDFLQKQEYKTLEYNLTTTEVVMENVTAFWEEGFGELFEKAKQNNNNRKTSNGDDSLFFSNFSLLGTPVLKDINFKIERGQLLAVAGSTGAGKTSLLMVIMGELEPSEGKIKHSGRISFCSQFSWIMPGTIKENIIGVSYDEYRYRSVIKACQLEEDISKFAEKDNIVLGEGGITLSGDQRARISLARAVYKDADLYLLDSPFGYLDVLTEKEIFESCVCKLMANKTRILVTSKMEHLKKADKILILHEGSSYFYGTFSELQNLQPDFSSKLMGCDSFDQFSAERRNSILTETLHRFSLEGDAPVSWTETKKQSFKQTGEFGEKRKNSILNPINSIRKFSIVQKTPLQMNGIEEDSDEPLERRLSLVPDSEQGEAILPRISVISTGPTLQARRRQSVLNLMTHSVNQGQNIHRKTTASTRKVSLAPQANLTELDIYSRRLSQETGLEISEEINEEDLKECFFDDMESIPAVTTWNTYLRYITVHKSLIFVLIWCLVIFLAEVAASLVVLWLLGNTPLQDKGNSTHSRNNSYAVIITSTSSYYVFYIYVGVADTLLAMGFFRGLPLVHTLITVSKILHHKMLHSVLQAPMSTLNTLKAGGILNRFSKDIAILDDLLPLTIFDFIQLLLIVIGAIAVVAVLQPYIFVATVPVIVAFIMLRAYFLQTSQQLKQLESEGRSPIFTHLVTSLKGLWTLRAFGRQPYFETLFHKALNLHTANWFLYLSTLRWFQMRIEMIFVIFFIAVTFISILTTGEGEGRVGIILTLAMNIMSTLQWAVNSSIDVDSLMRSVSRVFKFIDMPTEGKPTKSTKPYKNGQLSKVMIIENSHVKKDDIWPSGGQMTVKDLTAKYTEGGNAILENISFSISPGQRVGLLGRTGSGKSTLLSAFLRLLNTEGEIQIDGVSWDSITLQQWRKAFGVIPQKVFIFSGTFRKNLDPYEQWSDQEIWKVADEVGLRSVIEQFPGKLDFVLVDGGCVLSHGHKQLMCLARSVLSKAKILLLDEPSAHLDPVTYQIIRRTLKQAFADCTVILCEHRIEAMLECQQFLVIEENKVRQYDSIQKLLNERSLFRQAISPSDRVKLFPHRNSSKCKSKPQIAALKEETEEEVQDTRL
Briefly: Ussing chamber electrophysiology assay of CFTR potentiation in G551D/F508del CF bronchial epithelial cells (35° C.). In kind it is cell-based. Conditions: G551 D/F508del Ussing chamber assay at 35 degrees Celsius. The source says: • SHELXTL, Version 5.1, Bruker AXS, 1997. • PLATON, A. L. Spek, J. Appl. Cryst. 2003, 36, 7-13. • MERCURY, C. F. Macrae, P. R. Edington, P. McCabe, E. Pidcock, G. P. Shields, R. Taylor, M. Towler and J. van de Streek, J. Appl. Cryst. 39, 453-457, 2006. • OLEX2, Dolomanov, O. V.; Bourhis, L. J.; Gildea, R. J.; Howard, J. A. K.; Puschmann, H., (2009). J. Appl. Cryst., 42, 339-341. • R. W. W. Hooft et al. J. Appl. Cryst. (2008). 41. 96-103. • H. D. Flack, Acta Cryst. 1983, A39, 867-881. Using Chamber Electrophysiology Assay of CFTR Potentiation in CF Bronchial Epithelial Cells
Primary cystic fibrosis human bronchial epithelial (CF hBE) cells were expanded and cultured according to published methods (Neuberger et al., Ch. 4 of Cystic Fibrosis, Methods in Molecular Biology vol. 741, pp. 39-54 (2011)). Well-differentiated cells (>30 days at air/liquid interface) on Snapwell filters (Corning Costar, cat. no. 3801) were mounted in Ussing chambers (Physiologic Instruments, Inc., San Diego, CA). […] HEPES buffered physiological saline (composition (in mM): 137 NaCl, 4 KCl, 1 MgCl2, 1.8 CaCl2), 10 HEPES Na) was used in both apical and basolateral chambers. Chambers were bubbled with air to promote mixing and the voltage was clamped to zero. Amiloride (30 uM), forskolin (10 uM), test compound (4 increasing concentrations), and CFTRinh-172 (20 uM) were added sequentially with 20-25 minutes between additions. Short-circuit currents were acquired and analyzed using LabScribe2. Test compound responses were scaled relative to responses for DMSO (0%) and the maximal response of a positive control potentiator (100%).

For assay [3], the target named is T3, recombinant F508del V470 CFTR in Fischer rat thyroid (FRT) cells (Homo sapiens, UniProt P13569, DEL508-508).
T3 construct: expressed in transfected cells
T3 sequence (P13569 with tags, fused parts or gaps DEL508-508): as the sequence (P13569 whole entry F508del/G551D) above, with D550G counted along it
Briefly: FRT ion flux assay of F508del CFTR potentiation. In kind it is cell-based. Particulars: FRT cells expressing F508del V470 CFTR, forskolin 20 uM, 27° C. pre-incubation. In short, it runs like this: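 FRT cells co-expressing F508del V470 CFTR and halide-sensitive YFP, temperature-corrected at 27° C for 16-24 h, then treated 30 min with compound plus 20 uM forskolin. Iodide addition quenches YFP, read after ~21 s; ratio scaled to DMSO (0%) and positive control potentiator (100%).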

For assay [4], the system named is F508del homozygote patients. Conditions: cited from earlier work.
The test system of another assay is G551 D patients. Conditions: cited from earlier work.

As a reminder, the EC50 is the concentration at which the effect is half-maximal.

T1 sequence (P13569 with tags, fused parts or gaps DEL508-508): as the sequence (P13569 whole entry F508del/G551D) above, with D550G counted along it

In the case of `CC[C@H](c1cn(-c2ccc(F)cc2F)nn1)n1cc(-c2cnc(C(F)(F)F)nc2)c2c(N)ncnc21` (single isomer, unassigned) [Example 162], the figures for the concentration giving a half-maximal response (EC50) in assay [1], in assay [2] and in assay [3] were 339 nM, 8450 nM and 363 nM, respectively.

On to `CCC(c1cn(-c2ccccc2F)nn1)n1cc(-c2cncnc2OC)c2c(N)ncnc21` (single isomer, unassigned; enantiomer 2) [Example 134, (+) 7-{1-[1-(2-Fluorophenyl)-1H-1,2,3-triazol-4-yl]propyl}-5-(4-methoxypyrimidin-5-yl)-7H-pyrrolo[2,3-d]pyrimidin-4-amine, enantiomer 2], for which the EC50 came out at 28.9 nM in assay [1], 826 nM in assay [2] and 13.4 nM in assay [3].

With `CC(C)(C)c1cc(C(C)(C)C)c(NC(=O)c2c[nH]c3ccccc3c2=O)cc1O` [Kalydeco, ivacaftor], the improvement on monotherapy result in assay [4] is listed as “did not lead to any appreciable improvement”. In the assay with G551 D patients, the “frequency of pulmonary exacerbations” value is “reduced the frequency of pulmonary exacerbations”; the “lung function, percent predicted FEV1 increased” value is recorded as 10-13%; the weight result is given as “allowed weight gain”.

Regarding `CC[C@@H](c1cn(-c2ccc(F)cc2F)nn1)n1cc(-c2cnc(C(F)(F)F)nc2)c2c(N)ncnc21` (single isomer, unassigned) [Example 161], the EC50 was determined as 10.9 nM in assay [1], 303 nM in assay [2] and 8.6 nM in assay [3].

The values above are taken from US12612409B2, “Pyrrolopyrimidines as CFTR potentiators” (Cystic Fibrosis Foundation, priority 2016, dated 2026).
